Assay results: PMC5908160, “Inhibition of sperm motility in male macaques with EP055, a potential non-hormonal male contraceptive” (PLoS ONE, 2018)

Target: EPPIN (Homo sapiens, UniProt O95925)
Assay: AlphaScreen assay of a-EAb binding to EPPIN
Settings: n = 4, read-out: IC50, inhibition of a-EAb binding to EPPIN
Protocol: The AlphaScreen® assay was carried as previously described. Briefly, recombinant histidine-tagged recombinant EPPIN was pre-incubated with Ni-NTA chelate donor beads (catalog number AS101, Perkin Elmer, Waltham MA) and anti-Eppin 007 antibody was pre-incubated with Protein A acceptor beads (catalog number 6760136, Perkin Elmer, Waltham MA) for 30 minutes. Equal volumes of donor and acceptor bead mixtures were pipetted into white opaque 384-well microplates (OptiPlate-384; PerkinElmer, Waltham, MA) in a final volume of 30 μL. Plates were covered with top seal and transferred to a Synergy 2 Multiplatform automated plate reader (Biotek, Winooski, VT). After shaking for 2 min, plates were read with an excitation 680/30 filter, an emission 570/100 filter and data acquired using Gen5 software (Biotek). Each set of samples was pipetted in 4 replicates. […] A specific signal for each time point was calculated by subtracting the background signal (obtained in the absence of EPPIN) from its respective total signal. […] Non-specific interactions of compound with assay components were measured at the same time with the IgG detection kit ([…] biotinylated rabbit IgG) to generate the bead interaction: 10 μg/ml donor and acceptor beads. […]

Chain of EPPIN (O95925 22-133): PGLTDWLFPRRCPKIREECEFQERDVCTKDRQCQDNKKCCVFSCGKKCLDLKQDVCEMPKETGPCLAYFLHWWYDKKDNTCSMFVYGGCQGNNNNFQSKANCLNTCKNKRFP

Structure (SMILES): COC(=O)NNc1nc(Nc2ccc(NC(C)=O)c(O)c2)nc(SCC(=O)O)n1 [EP055]
- IC50: 1120 µM
